Assay results taken from the METLIN SMRT retention time set (Domingo-Almenara et al. 2019).

Assay: gradient 5% acetonitrile 3 min, to 50% in 2 min, to 85% in 15 min, held 3 min, 100 µL/min
Settings: column: Zorbax Extend-C18 2.1 x 50 mm; eluents: water / acetonitrile, 0.1% formic acid
Procedure, shortened: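 A Zorbax Extend-C18 column (2.1 × 50 mm, 1.8 μm) run at 100 μL/min with water and acetonitrile, both containing 0.1% formic acid, separated mixtures of ~100 pure standards. The HPLC was coupled to a quadrupole time-of-flight mass spectrometer operated in positive and negative ionization mode, with dead and dwell volumes of 40 μL and 900 μL. Each retention time was taken from a computationally picked adduct peak that was then manually inspected.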

Compound | RP-LC retention time
O=C(NCCCN1CCN(c2ccccc2)CC1)C1CCCN(c2nc3cccnc3s2)C1 (configuration not stated) | 643 s
Cc1cccc(CNC(=O)C2(C)Cn3cnc(C(=O)NCc4ccccc4F)c3C(=O)N2C2CC2)c1 (configuration not stated) | 772 s
CCS(=O)(=O)N1CCCc2cc(C(=O)NC(C)(C)C)ccc21 | 826 s
CCOC(=O)C1CCCN(C(=O)c2cn(-c3cc(N4CCSCC4)ncn3)cn2)C1 (configuration not stated) | 802 s
CC1CN(CC(=O)N2CCN(c3ncccn3)CC2)c2ccccc2S1 (configuration not stated) | 918 s
CS(=O)(=O)Nc1ccc(-c2noc(CNC(=O)Cc3ccccc3)n2)cc1 | 722 s
O=C(COc1ccc(Cl)cc1)NCc1ccc2c(c1)OCCCO2 | 870 s
COc1cccc(N2CCN(S(=O)(=O)c3cc(-c4cc(C(F)(F)F)on4)sc3C)CC2)c1 | 1260 s
O=C(NCc1ccc(-c2noc(-c3cc(F)ccc3F)n2)s1)C1CC1 | 932 s
Cc1ccc(C)c(CNC(=O)c2cc3n(n2)CC(C)(C(=O)NCc2ccc(F)cc2)N(C)C3=O)c1 (configuration not stated) | 842 s
O=C(NC1CCN(c2cc(-c3ccccc3)[nH]n2)C1)c1cc(F)ccc1Cl (configuration not stated) | 708 s
Cc1ccc2nc(NC(=O)CSc3nc4c(c(=O)n3-c3ccccc3)SCC4)sc2c1 | 922 s
O=C(c1ccccn1)N1CCN(c2cc(-c3ccccc3)ncn2)CC1 | 551 s
CC(C)NC(=O)CCC1CCN(c2cc(NC3CC3)ncn2)CC1 | 551 s
CC(C)n1c(N2CCN(C(=O)C3CC(=O)N(CCc4ccccc4)C3)CC2)cc(=O)n(C(C)C)c1=O (configuration not stated) | 786 s
CCNc1nc(C)cc(N2CCN(C(=O)Nc3cc(OC)ccc3OC)CC2)n1 | 626 s
Cc1cc2[nH]c(C(=O)Nc3ccccc3Br)c(CN3CCOCC3)c2s1 | 708 s
O=C(c1ccc2c(=O)n(-c3ccccc3)c(N3CCCC3)nc2c1)N1CCN(c2ccccn2)CC1 | 617 s
Cc1cc2nn(CC(=O)NCC3CCCO3)c(=O)n2c(Nc2ccccc2C)n1 (configuration not stated) | 808 s
CC(C)(C)c1ccc(C(=O)Nc2ccc(S(N)(=O)=O)cc2)cc1 | 932 s
O=C(CN1c2ccc(F)cc2-c2ccccc2S1(=O)=O)NCc1cccnc1 | 646 s
O=C(CN1C(=O)C2CCCCN2c2ccc(C(=O)N3CCCCC3)cc21)NCc1cccnc1 (configuration not stated) | 615 s

Compound | RP-LC retention time
O=C(Nc1cccn2c(C3CCC3)nnc12)c1ccc(Cl)s1 | 871 s
CC1CC(=O)c2cnc(N3CCN(Cc4ccc5c(c4)OCO5)CC3)nc2C1 (configuration not stated) | 632 s
O=C(Cn1nc(-c2ccccc2)c2cc(Cl)ccc21)NCc1cccnc1 | 712 s
COc1ccccc1-c1noc(C2CCCN2C(=O)Nc2ccc3c(c2)OCCO3)n1 (configuration not stated) | 762 s
O=C(c1ccoc1)N1CCC2(CCCCO2)CC1 | 639 s
O=C(Cn1c(=O)c(CCC(=O)NC2CCCC2)nc2ccccc21)Nc1ccc(F)c(Cl)c1 | 672 s
COc1cn(CC(=O)Nc2cccc(C)c2C)c(CN2CCCCCC2)cc1=O | 574 s
CCn1cc(-c2nc(C)c(C(=O)Nc3ccccc3OC)s2)c2cccnc21 | 1120 s
CC(C(=O)NCc1ccco1)C1CCN(C(=O)c2cc3ccccc3[nH]2)CC1 (configuration not stated) | 767 s
O=C(O)Cn1c(C(=O)Nc2nc(-c3ccccc3Cl)cs2)cc2ccccc21 | 1130 s
CCn1c(=O)n(CC)c2cc(NC3=C(C(N)=O)S(=O)(=O)c4ccccc43)ccc21 | 702 s
CCc1cc(=O)n(CC(=O)N2CCc3ccccc32)c(N2CCOCC2)n1 | 734 s
CC1=C(c2ccc(F)cc2)S(=O)(=O)N=C1N1CCCN(C(=O)Nc2ccccc2)CC1 | 806 s
Cc1cc(C(=O)NCCc2c[nH]c3ccccc23)c2c(=O)n(C)c(=O)n(C)c2n1 | 742 s
O=C(C1CC1)N1CCc2sc(S(=O)(=O)NCc3cccs3)cc2C1 | 794 s
CCOc1ccc(NC(=O)C2CCCN(c3nccnc3Sc3ccccc3)C2)cc1 (configuration not stated) | 1100 s
CCN1c2ccc(Cl)cc2C(=O)NC12CCN(C(=O)Nc1ccccc1OC)CC2 | 895 s
Cc1cnc(C(=O)N[C@@H]2CCC[C@@H]2C(=O)NC(C)C)cn1 | 582 s
Cc1nn(CCCC(=O)NCCN(C)C)c(=O)c2c(-n3cccc3)n(-c3ccccc3)nc12 | 664 s
O=C(CN1CCN(c2ccc3c(c2)OCCO3)C1=O)NCc1nc(-c2ccccc2)no1 | 745 s
COc1ccccc1Cn1c(COc2ccccc2OC)nc2ccccc21 | 726 s
CCc1ccc(N2C(=O)c3c(C(=O)OC)ncn3CC2(C)C(=O)NC2CCCC2)cc1 (configuration not stated) | 615 s

Compound | RP-LC retention time
COc1ccccc1NC(=O)c1cnc2c(c1)c(=O)n(C)c(=O)n2-c1ccccc1 | 922 s
O=C(CN1C(=O)CSc2ccc(C(=O)N3CCCCC3)cc21)NCCN1CCCCC1 | 612 s
O=C(Nc1cc(Cl)ccc1F)C1CC(=O)N(c2ccc3c(c2)CCN3C(=O)C2CC2)C1 (configuration not stated) | 835 s
O=C(NC1CCCCCC1)C1CCCN(C(=O)c2ccc(F)c(F)c2)C1 (configuration not stated) | 856 s
COc1cc(OC)c(NC(=O)c2cc3c(=O)oc4ccccc4c3n2C)cc1Cl | 1030 s
COc1ccc(S(=O)(=O)N2CCCC(C(=O)NCCC3=CCCCC3)C2)cc1C (configuration not stated) | 1070 s
O=C(CCS(=O)(=O)c1ccccc1)Nc1cc(-c2ccccc2)nn1CCO | 695 s
Cc1ccc(-c2csc(NC(=O)COc3c(C)ccc(C)c3C)n2)cc1 | 1320 s
Cc1ccc(S(=O)(=O)c2cnc(N3CCN(C4CCCCC4)CC3)nc2N)cc1C | 718 s
O=C(CC1CCN(S(=O)(=O)c2ccccc2)CC1)N1CCN(c2ccccn2)CC1 | 625 s
CCOC(=O)C1CCN(Cc2nc3nc(C)cc(N4CCC(C)CC4)n3n2)CC1 | 642 s
CCCN(CCC)C(=O)Cn1nc(-c2nc(-c3ccc(C)cc3)no2)c2ccccc21 | 859 s
CCN1C(=O)c2cccnc2Sc2cc(CNC(=O)COc3ccccc3)ccc21 | 798 s
O=C(Nc1ccc(-c2nc(-c3ccccc3)co2)cc1)C1CCCCC1 | 1210 s
CC(C)(C)c1ccc(C(=O)NC2CCN(c3cc(-c4ccc(Cl)cc4)[nH]n3)C2)cc1 (configuration not stated) | 976 s
O=C(Cn1cccc(-c2nc(-c3ccc(F)cc3)no2)c1=O)NC1CCCCC1 | 834 s
O=S(=O)(Cc1c(F)cccc1Cl)N1CCc2nc(-c3ccc(F)cc3)ncc2C1 | 1130 s
COc1ccc(-c2ncc3c(n2)CCN(C(=O)Nc2cccc(Br)c2)C3)cc1 | 1010 s
CCc1nc2cc3c(cc2n1CC(=O)N1CCCCC1)OCCO3 | 600 s
COc1cc(NC(=O)CN2C(=O)C(C)(C)c3ccccc32)cc(OC)c1 | 876 s
COc1ccccc1NC(=O)N1CCc2nc(-c3ccccc3)ncc2C1 | 922 s
CCOCCCNC(=O)c1cn(CC)nc1S(=O)(=O)N1CCN(c2cccc(Cl)c2)CC1 | 1030 s

Compound | RP-LC retention time
CCOC(=O)CCNC(=O)NCc1nnnn1-c1ccc(C)c(C)c1 | 663 s
Cc1ccc(OCc2nc(C3CCNC3)no2)cc1 (configuration not stated) | 641 s
COC[C@@H]1CN(Cc2ccccn2)C[C@H]1c1nc(C2CC2)no1 | 602 s
O=[N+]([O-])c1ccc(-c2csc(N3CCOCC3)n2)cc1 | 1000 s
CC1=C(c2ccc(F)cc2)S(=O)(=O)N=C1N1CCCN(C(=O)C2CCOC2)CC1 (configuration not stated) | 886 s
CCOc1ccc(CC(=O)N2C[C@@H]3C[C@H]2C[C@@H]3NC(=O)c2ccccc2)cc1 | 762 s
COc1ccc(NC(=O)Cn2c(=O)n(-c3ccc(C)cc3)c3ncccc32)c(C)c1 | 833 s
O=S(=O)(c1ccc(-c2noc(-c3ccccc3Br)n2)cc1)N1CCOCC1 | 1110 s
Cc1ccc2nc(C(=O)N3CCN(c4ccccc4Cl)CC3)cn2c1 | 748 s
CCOC(=O)C1=C(CN2CCN(c3ccccn3)CC2)NC(=O)NC1c1ccc(Cl)cc1 (configuration not stated) | 643 s
Cc1oc(C(C)C)nc1C(=O)NCc1cccc(C(F)(F)F)c1 | 1080 s
CC(C)CCNc1nc(-c2ccc(Cl)cc2)nc2ccccc12 | 932 s
CC(C)N1CCN(Cc2ccc(C(=O)NCc3cccc(C(F)(F)F)c3)cc2)C(=O)C1=O | 766 s
Cc1ccc(-c2cn3c(n2)N(C(=O)c2sc(C)nc2C)CCC3)cc1 | 642 s
CC(C)CN1CCn2cc(C(=O)NCc3ccc(F)cc3F)nc2C1 | 608 s
COc1ccc2nc(NC(=O)C3CCN(C(=O)c4ccc(-c5noc(C)n5)cc4)CC3)sc2c1 | 803 s
CNC(=O)C1CCN(c2nc3ccc(-c4cccc(OC)c4)nc3s2)CC1 | 801 s
COCCN1C(=O)c2ccccc2C(C(=O)Nc2ccc3c(c2)OCO3)C12CCCC2 (configuration not stated) | 816 s
CCOc1ccc(NC(=O)N2CCc3cn(CCOC)c4cccc(c34)C2)cc1 | 898 s
NS(=O)(=O)c1ccc(CCNS(=O)(=O)c2cc(-c3ccno3)cs2)cc1 | 748 s
COc1ccc(Br)cc1CNC(=O)Cn1cc(-c2nnc(C)o2)c2ccccc21 | 847 s
